Active and inactive are the calls of the source.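 How the source made its calls: active means compounds giving half or more protection of infected cells from virus-caused growth loss, again on retest; inactive means the rest.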
Tested on: CEM cells HIV-1 protection, formazan growth assay
Test: NCI AIDS Antiviral Assay
Conditions: for IC50: measured here: growth of uninfected CEM cells
Procedure, shortened: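 Human CEM cells, uninfected and HIV-1-infected, received five drug concentrations, and growth was read by soluble formazan assay. Compounds giving at least 50% protection were retested; reproducible 100% protection defined confirmed active.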

SMILES	EC50 [µM]	IC50 [µM]	outcome
Clc1ccc(-c2cc(-c3cc(-c4ccc(Cl)cc4)n[nH]3)[nH]n2)cc1	> 200	> 200	–
CN(C)CCCNC(=O)c1cc(NC(=O)c2cc(NC(=O)c3cc(NC(=O)c4ccc(C(=O)Nc5cn(C)c(C(=O)Nc6cn(C)c(C(=O)Nc7cn(C)c(C(=O)NCCCN(C)C)n7)n6)n5)cc4)cn3C)cn2C)cn1C	> 50.1	> 50.1	–
CCN(CC)CCNC(=O)c1nn(C)c(=S)[nH]c1=S	–	–	inactive
CC(C)C1=CC2=CC(=O)C3C(C)(C)CCCC3(C)C2=C(O)C1=O (stereo not given)	> 20	4.07	–
CCN(Cc1ccccc1)c1ccc(/C=C/c2ccnc3ccccc23)cc1	> 10.2	8.32	–
Clc1ccc2c(c1)[nH]c1c2nc2sccn21	–	–	inactive
CCOC(=O)C(=C/C=C/NCCc1c[nH]c2ccccc12)C(=O)OCC	> 10.7	> 10.7	–
CCCCC#COS(=O)(=O)c1ccc(C)cc1	> 251	138	–
NS(=O)(=O)c1ccc(NC(=O)c2cccc3c(Nc4ccc(S(N)(=O)=O)cc4)c4ccccc4nc23)cc1	> 34.7	26.3	–
O=C1CCCn2c(nc3ccccc32)N1	> 200	> 200	–
Cc1cccc2c(=O)c3cccc([C@H](C)C(=O)O)c3oc12	> 200	> 200	–
C1=C(c2ccccc2)N2CCCNC2(c2ccccc2)CS1 (stereo not given)	> 200	132	–
Cn1c(=O)cc(O)c2ccccc21	> 200	> 200	–
COC1C(OC(N)=O)C(O)C(Oc2ccc3c(O)c(NC(=O)c4ccc(O)c(CC=C(C)C)c4)c(=O)oc3c2C)OC1(C)C (stereo not given)	> 389	79.4	–
CCN1C(=O)CCCCC(=O)Nc2ccccc2-c2ccccc21	–	–	inactive
CCOC(=O)C(O)(NC(=O)c1ccc(F)cc1)C(F)(F)F (stereo not given)	> 200	> 200	–
CSc1nc2c(=O)oc(-c3ccccc3)nc2s1	> 200	6.03	–
Cc1cc(Cl)c(O)c(-c2cc(-c3ccccc3O)c(C#N)c(N)n2)c1	> 200	2.14	–
O=C(NC(=S)Nc1ccccn1)c1ccccc1	> 200	135	–
CN1CCOC(c2ccc(Cl)cc2)O1 (stereo not given)	–	–	inactive
CC(C)(C)OC/C=C1\C(=O)O[C@H]2C[C@@H](O[Si](C)(C)C(C)(C)C)C[C@@H]12	> 200	39.8	–
CCOP(=O)(OCC)C1CC(C)OC1=O (stereo not given)	–	–	inactive

SMILES	EC50 [µM]	IC50 [µM]	outcome
CCN1C(=O)c2cc(OC)c(OC)cc2C(=O)C12OC(=O)c1cc3c(cc12)OCO3 (stereo not given)	> 200	93.3	–
COc1cc(C(=O)Oc2ccc3c(c2)OCO3)cc(OC)c1OC	> 200	> 200	–
CC(=O)Nc1cc2cc(N)ccc2oc1=O	> 107	> 107	–
Cc1ccc(N=NC(C2=NC(=O)CS2)c2nc3ccccc3[nH]2)cc1 (stereo not given)	> 7.41	> 7.41	–
O=c1c(-c2ccccc2)c2n(c3ccccc13)CCN2	> 200	> 200	–
Cc1cccc(Cl)c1NC(N)=S	> 36.3	> 36.3	–
O=CC1(C(O)C2SCCCS2)SCCCS1 (stereo not given)	> 100	5.5	–
CCn1c(O)c(C=Nc2ccccc2)s/c1=N/Nc1ncc(CC(=O)Nc2ccccc2C)s1	> 200	170	–
O=S(=O)(F)c1cccc(C[P+](c2ccccc2)(c2ccccc2)c2ccccc2)c1	> 200	51.3	–
CN(C(=O)C1=CCCCCC1)c1ccccc1Br	> 813	389	–
O=C(C=Nc1ccccc1C(=O)[O-])c1cccs1.O=C(C=Nc1ccccc1C(=O)[O-])c1cccs1.[Ni+2]	–	–	inactive
CCCNC1(C(N)=O)CCN(Cc2ccccc2)CC1	> 200	> 200	–
CCOP(=O)(OCC)C(F)(F)CC1CCCCC1	> 200	170	–
COC1OC(OC)C2C(c3c(C)cc(C)cc3C)=NOC12 (stereo not given)	> 234	> 234	–
CC(C)c1c(O[Si](C(C)C)(C(C)C)C(C)C)cc2c(c1O)CC[C@H]1C(C)(C)CCC[C@]21C	> 200	26.9	–
C[n+]1cn(-c2nc3ccccc3nc2[N-]S(=O)(=O)c2ccccc2)c2ccccc21	> 200	> 200	–
CCOC(=O)N1CCc2cc(OC)c(OC)c3c2c1cc1cc(OC)c(OC)cc13	–	–	inactive
COc1cc(C(=O)N(C(=S)OCc2ccccn2)c2ccccc2)cc(OC)c1OC	> 200	74.1	–
N#Cc1c(N2CCOCC2)ncn(-c2ccccc2)c1=O	> 200	> 200	–
CC1(O)CCC2(C#N)CCC1C2O (stereo not given)	> 1380	> 1380	–
CNc1ncnc2c1ncn2C1OC(CO)C(O)C1O (stereo not given)	–	–	inactive
COc1ccc(-c2cc(=O)c3c(OC)c(OC)c(OC)c(OC)c3o2)cc1OC	> 200	33.9	–
